The target of data set [1] is T1, Gelatinase A (Homo sapiens, UniProt P08253).
T1 construct: endogenous in cells; host or cells: C8161
T1 sequence (P08253 110-660): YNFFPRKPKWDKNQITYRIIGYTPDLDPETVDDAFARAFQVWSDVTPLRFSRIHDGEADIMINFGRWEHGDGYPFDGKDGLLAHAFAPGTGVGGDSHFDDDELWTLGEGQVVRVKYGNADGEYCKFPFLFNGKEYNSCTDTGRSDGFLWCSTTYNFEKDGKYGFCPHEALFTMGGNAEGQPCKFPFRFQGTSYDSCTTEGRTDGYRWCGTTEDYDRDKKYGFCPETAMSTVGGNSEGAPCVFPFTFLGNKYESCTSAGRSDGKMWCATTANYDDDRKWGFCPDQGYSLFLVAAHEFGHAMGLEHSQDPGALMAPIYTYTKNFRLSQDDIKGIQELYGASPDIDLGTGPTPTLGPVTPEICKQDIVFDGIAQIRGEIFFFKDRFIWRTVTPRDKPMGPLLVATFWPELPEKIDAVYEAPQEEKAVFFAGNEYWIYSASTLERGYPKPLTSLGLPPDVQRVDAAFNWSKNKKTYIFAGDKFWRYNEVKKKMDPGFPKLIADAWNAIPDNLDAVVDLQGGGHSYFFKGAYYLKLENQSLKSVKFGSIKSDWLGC
Description: Zymography with densitometry of C8161 conditioned medium, gelatinase A. In kind it is cell-based. The note with it: 50 μg/mL, 24 hr. The protocol:
(§1) Six hundred thousand (6×10^5) C8161 cells were seeded per well in a 12-well dish coated with a laminin/collagen IV/gelatin matrix in DMEM plus Mito+ and 0.1% gentamicin sulfate. After approximately 1 hr incubation to allow the cells to attach, 50 μg/mL of either doxycycline or one of the other CMTs was added per well and the dish then placed in a 37° C. humidified 5% CO2 incubator. After 24 hr, the supernatants were removed and centrifuged to remove any cells or debris. One volume of Laemmli sample buffer minus reductant was added to two volumes of the medium, and this sample electrophoresed without prior heating or boiling on a 10% SDS-PAGE containing 0.1% gelatin (samples normalized based on the same number of cells per volume of medium per time of incubation). After electrophoresis, the gels were washed with gentle shaking at room temperature for 30 min in 50 mM Tris-HCl (pH 7.5) plus 2.5% TRITON® X100 plus 50 μg/mL of the corresponding CMT used in the original treatment. The gel was then placed in incubation buffer (50 mM Tris-Cl/10 mM CaCl2/150 mM NaCl/0.05% NaN3) also containing 50 μg/mL of the corresponding CMT, and incubated at 37° C. for 20-24 hr. The gels were stained with Coomassie BBR-250, then destained with 10% methanol/10% acetic acid in water until the wash remained clear. A photographic negative of the gel was digitized using a video camera and Snappy Video Snapshot system (Play Inc., Rancho Cordova, Calif.). An integrated density was determined for each of the cleared zones of proteolysis using the software ImagePC8α (freely available from the National Institutes of Health), and the corresponding changes in gelatinolytic activities reported compared to the control samples normalized to a value of 1.0.

Data set [2] relates to E-10 Cells. Description: MTS cytotoxicity assay, E-10. The conditions noted are these: two days. Background: Tetrazolium dyes change colour on reduction, which living cells bring about.
Description: (§2) A panel of chemically modified tetracycline compounds and doxycycline were tested for cytotoxicity against two carcinomas: COLO 205 (a human colon carcinoma-derived cell line) and the E-10 clone of MDA-MB-231 (a human breast carcinoma-derived cell line). Cytoxicity was measured using a conventional assay for viability with a tetrazolium salt (MTS). Cells were grown in media containing the CMTs at concentrations ranging from 5 μM to 100 μM for two days. The cells were then incubated with the MTS for several hours before removal of the supernatant medium for determination of formazan, which is generated only by the viable cells. Results are expressed as percent cytotoxicity, which is simply the percent decline in measured formazan concentration in the sampled medium.
Data set [3] concerns COLO 205 Cells. Description: MTS cytotoxicity assay, COLO 205. The conditions noted are these: two days.
Description: as §2
Data set [4] has as its system C8161 cells. Description: In vivo metastasis assay, C8161 cells i.v. in SCID mice. The note with it: for Number of Lung Metastases/Mouse: Average ± SEM, control 231 ± 49. The method, then: Immunosuppressed mice (athymic nude/nude SCID females from Harlan Sprague Dawley) were housed in autoclaved cages with microisolator tops, and all manipulations of the animals were done in a laminar flow hood after wiping down both the hood, gloves and cages with ABQ sterilant. The mice were fed sterile Pico Lab Chow (Purina) and autoclaved St. Louis tap water. […] The compounds and control (sterile water plus 2% carboxymethyl cellulose) were kept stored at −80° C. wrapped in aluminum foil to prevent any light induced changes, and each day's supply was thawed just prior to use. Four compounds were tested for their effects on the metastatic potential of C8161 cells injected intravenously via the tail vein: […] The concentration of the compounds in the vials used to give the 100 mg/kg doses were 2.5 times that in the 40 mg/kg dose so that approximately the same volume was used in both cases, approximately 0.5 mL/animal. The experiments started with nine animals per group at day −4. On day zero, 2×10^5 C8161 cells in cold Hank's Balanced Salt Solution (HBSS) were injected intravenously via tail vein inoculation. The experiment was continued for an additional 24 days, at which time the animals were sacrificed and their lungs removed and fixed in a solution of Bouins/formaldehyde (5 parts:1 part). Tumors were quantitated on the entire surface of the lungs by rotating the lungs and counting the tumors on each lobe using a 6× magnifying glass. Statistical analysis was performed using the statistical package of Microsoft's Excel spreadsheet software.

Data set [5] relates to C8161 human melanoma cells. Description: In vitro invasion assay (MICS), laminin/collagen IV/gelatin matrix-coated filter. In kind it is cell-based. The note with it: 3, 20 and 50 μg/mL; for Percent Inhibition of invasive potential: 48 hr. The protocol: The in vitro invasive potentials of the control (DMSO only) and chemically-modified tetracycline treated cells were measured using a modified Boyden chamber as previously described (Membrane Invasion Culture System, MICS). An intervening barrier consisting of a polycarbonate filter containing 10 μm pores (Osmonics, Livermore, Calif.) coated with a defined matrix of human laminin/collagen IV/gelatin (Sigma, St. Louis, Mo.) was used for these studies. […] Doxycycline or individual CMTs were then added to different wells of the chamber at 3, 20 or 50 μg/mL 2 hr post-seeding and daily during the assay. After 48 hr, the cells were removed from the lower wells and the number of invasive cells was determined and compared to the original number of cells seeded into the upper wells. Where appropriate, data were corrected for proliferation during the period of the in vitro assay.

In data set [6] the test system is C8161 cells. Description: C8161 cell proliferation (doubling time). In kind it is cell-based, human. The note with it: 50 μg/mL; for Doubling Time: on plastic, DMSO 22 hr; for increase of doubling time: versus DMSO. The protocol: Cell Culture and Maintenance: C8161 cells, a human melanoma cell line, were maintained in Dulbecco's modified Eagle's medium (DMEM; […] These cells were routinely screened for Mycoplasma contamination using the GenProbe Rapid Detection System (Fisher Scientific; Chicago, Ill.). Chemically Modified Tetracyclines: Fresh stock solutions of the chemically modified tetracycline compounds (2 mg/mL) were prepared for each experiment by hydrating in 2% dimethyl sulfoxide (DMSO)/water pH 10, then adjusting to pH 7.4 using 1.0 M HCl. […] Sigma Chem. Co.; control) or 50 μg/mL of doxycycline or the other CMTs (three wells on each plate per compound). […] The doubling time for C8161 cells in the presence of each compound was then determined and compared to the DMSO treated cells (control).

Data set [7] addresses T2, Gelatinase B (Homo sapiens, UniProt P14780).
T2 construct: endogenous in cells; host or cells: C8161
Description: Zymography with densitometry of C8161 conditioned medium, gelatinase B. It is filed as cell-based. The conditions noted are these: 50 μg/mL, 24 hr. The method, then:
as §1

The subject of data set [8] is DU-145 and TSU-PR1 prostate cancer cell lines. Description: Prostate cancer cell viability/proliferation (trypan blue, MTT). In kind it is cell-based, human. An excerpt: To determine the cytotoxicity of CMTs on prostate tumor cell lines, TSU-PR1 cells (and cells of other tumor cell lines) were exposed to various CMTs or to doxycycline for 24 hr or 48 hr in a complete medium. Cell viability (percent of live cells) was estimated by counting the cells following trypan blue staining. Cellular viability was also estimated by the tetrazolium dye reduction assay (MTT assay) (Lokeshwar et al. 1995b). Due to the aggressive proliferative capacity of cancer cells, it is assumed that viable cells are actively proliferating. Therefore, the measurement of viability was used as an estimate of proliferation. Results are expressed as Mean±SEM from three separate experiments.

The test system of data set [9] is COLO 205 Cells.
Description: as §2
Data set [10] relates to E-10 Cells.
Description: as §2

Where two headings read alike, the source gives them in different places.

T2 sequence (P14780 94-707): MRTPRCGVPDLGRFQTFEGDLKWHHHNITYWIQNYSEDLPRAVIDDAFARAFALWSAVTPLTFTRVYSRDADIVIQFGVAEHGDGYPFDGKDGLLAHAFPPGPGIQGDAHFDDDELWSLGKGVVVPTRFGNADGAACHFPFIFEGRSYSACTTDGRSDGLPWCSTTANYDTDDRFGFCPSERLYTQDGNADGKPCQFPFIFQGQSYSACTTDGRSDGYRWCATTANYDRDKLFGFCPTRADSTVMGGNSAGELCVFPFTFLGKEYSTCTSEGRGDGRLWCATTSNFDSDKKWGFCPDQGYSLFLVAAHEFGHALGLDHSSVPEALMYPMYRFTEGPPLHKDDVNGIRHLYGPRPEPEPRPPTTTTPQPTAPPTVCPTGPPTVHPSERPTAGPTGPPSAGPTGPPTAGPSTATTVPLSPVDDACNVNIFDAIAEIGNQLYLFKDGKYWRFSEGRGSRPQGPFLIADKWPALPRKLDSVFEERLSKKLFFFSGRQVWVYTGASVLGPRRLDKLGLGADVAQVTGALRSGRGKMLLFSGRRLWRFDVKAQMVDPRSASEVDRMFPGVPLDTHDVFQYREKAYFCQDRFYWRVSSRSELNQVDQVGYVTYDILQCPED

Turning to `C[C@H]1c2cccc(O)c2C(O)=C2C(=O)[C@]3(O)C(O)=C(C(N)=O)C(=O)C[C@@H]3[C@@H](O)[C@@H]21` [CMT-8, 6α-deoxy-5-hydroxy-4-de(dimethylamino)tetracycline], the “Gelatinase A, integrated density normalized to control 1.00” value in data set [1] amounted to 0.70. Besides, the percent cytotoxicity in [2] (5 μM), in data set [2] (10 μM), in data set [2] (20 μM), in data set [2] (50 μM), in data set [2] (100 μM) and in [3] (5 μM) was 0% each time. The percent cytotoxicity is recorded as 20.5% in [3] (10 μM), 35.5% in data set [3] (20 μM), 44.4% in data set [3] (50 μM) and 50% in data set [3] (100 μM). Moreover, in [4] (40 mg/kg daily intragastric), the “Number of Lung Metastases/Mouse” value is on record as 186 ± 60. In addition, the “effect on number of lung metastases (significance)” value in data set [4] (at either dosage, p>0.05) is “did not significantly reduce the number of lung metastases”. For the same molecule, in data set [5], the “Type of Inhibition” value is “non-dose”. Also, the “Percent Inhibition of invasive potential” value in data set [5] is “˜12%”. Besides, the “Doubling Time” value in [6] is 26 h. In addition, the “increase of doubling time” value in [6] is “approximately 18%”. Also, the “Gelatinase B, integrated density normalized to control 1.00” value in data set [7] is given as 1.05.

`CC1(O)c2cccc(O)c2C(=O)C2=C(O)C3(O)C(=O)C(C(N)=O)=C(O)CC3CC21` (stereo not shown) [CMT-1, 4-de(dimethylamino)tetracycline]: the “Gelatinase A, integrated density normalized to control 1.00” value in [1] is listed as 0.24. Further, the percent cytotoxicity worked out at 7.6% in data set [2] (5 μM); 0% in data set [2] (10 μM); 0% in data set [2] (20 μM); 2.2% in data set [2] (50 μM); 7.6% in [2] (100 μM); 0% in data set [3] (5 μM). In addition, the percent cytotoxicity in data set [3] (10 μM) turned out to be 4%; in [3] (20 μM), 32.5%; in data set [3] (50 μM) it was 63.8%; in [3] (100 μM), 82.8%. For the same molecule, the “Number of Lung Metastases/Mouse” value is on record as 129 ± 102 in data set [4] (40 mg/kg daily intragastric) and 240 ± 28 in data set [4] (100 mg/kg daily intragastric). Moreover, the “effect on number of lung metastases (significance)” value in [4] (40 mg/kg daily, p<0.05) is “significantly reduced the number of lung metastases”; in data set [4] (100 mg/kg), “did not significantly reduce the number of lung metastases”. Also, the “Type of Inhibition” value in data set [5] was “dose-dependent”. For the same molecule, the “Percent Inhibition of invasive potential” value in data set [5] is recorded as 26-58%. Further, in data set [6], the “Doubling Time” value was determined as 24 h. Besides, the “increase of doubling time” value in [6] is on record as “approximately 9%”. Also, in data set [7], the “Gelatinase B, integrated density normalized to control 1.00” value was 0.22.

Take tetracycline pyrazole [CMT-5]: the “inhibition of cell proliferation” value in data set [8] was “not inhibitory”.

With `CC1(O)c2c(Cl)ccc(O)c2C(=O)C2=C(O)C3(O)C(=O)C(C(N)=O)=C(O)CC3CC21` (stereo not shown) [CMT-4, 4-de(dimethylamino)-7-chlorotetracycline], the “Gelatinase A, integrated density normalized to control 1.00” value in data set [1] was determined as 0.75. For the same molecule, the percent cytotoxicity in data set [9] (5 µM) is 1.8%; in data set [9] (10 µM), 6.8%; in [9] (20 μM), 25.3%; in data set [9] (50 µM), 73.3%; in data set [9] (100 µM), 81.9%; in data set [10] (5 µM), 9%. Also, the percent cytotoxicity in [10] (10 µM) was 16.7%; in data set [10] (20 μM), 0.8%; in data set [10] (50 µM), 0%; in data set [10] (100 µM) it was 0%. In addition, the “Type of Inhibition” value in data set [5] was “non-dose”. In data set [5], the “Percent Inhibition of invasive potential” value is given as “˜20%”. Further, the “Doubling Time” value in [6] is 22 h. Further, the “increase of doubling time” value in data set [6] is on record as “did not affect the doubling time”. Besides, the “Gelatinase B, integrated density normalized to control 1.00” value in data set [7] is 0.12.

Source of the values: patent US6429204B1, “Method of inhibiting cancer growth” (University of Miami, priority 1997, dated 2002).
